Experimental findings from ChEMBL document CHEMBL1125467, “Structure-activity relationship in the gastric cytoprotective effect of several sesquiterpene lactones” (1992) are described below.

Assay [1] deals with Rattus norvegicus. The assay can be described thus: Cytoprotective effect at an oral dose of 40 mg/kg. The assay is classed as functional. Further details: unit not given here.
Assay [2] relates to Rattus norvegicus. Description: Compound was evaluated for the cytoprotective effect at an oral dose of 40 mg/kg in rat. It is filed as functional.

Compound `C=C1C(=O)OC2/C=C(\C)C[C@@H]3C=C(CC(OC(=O)C(C)CC)[C@@H]12)C(=O)O3` (some centres not stated) registered a Cytoprotective effect with Rattus norvegicus [1] of 4.
On the same count and under the same terms, then `C=C1C(=O)O[C@@H]2C[C@@H](C)C3=CCC(=O)[C@@]3(C)[C@@H](OC(C)=O)[C@H]12`, with 0.9.
Compound `CC1C(=O)O[C@@H]2[C@H]1CC[C@H](C)[C@@]1(O)C=CC(=O)[C@@]21C` (some centres not stated) showed a Cytoprotective effect with Rattus norvegicus [1] of 4.
Still for that read-out and setting: for `C[C@@H]1C[C@H]2OC(=O)[C@H](C)[C@H]2[C@H](O)[C@]2(C)C(=O)C=CC12` (some centres not stated) the value was 0.66.
`C[C@@H]1C[C@H]2OC(=O)[C@H](C)[C@H]2[C@H](O)[C@]2(C)C(=O)CCC12` (some centres not stated) came in with a Cytoprotective effect with Rattus norvegicus [2] of 3.7.
Take `C=C1C(=O)O[C@@H]2C[C@@H](C)C3C=CC(=O)[C@@]3(C)[C@@H](OC(=O)CNC(=O)C(F)(F)F)[C@H]12` (some centres not stated): the Cytoprotective effect in the assay on Rattus norvegicus [1] amounted to 0.95.
The same measure, in the same setting: then `C=C1C(=O)O[C@@H]2C[C@@H](C)C3C=CC(=O)[C@@]3(C)[C@@H](OC(C)=O)[C@H]12` (some centres not stated), with 1.
The same measure, in the same setting: for `C=C1C(=O)O[C@@H]2C[C@@H](C)C3CCC(=O)[C@@]3(C)[C@@H](O)[C@H]12` (some centres not stated) the value was 1; for `CC1=CC(=O)C2C(C)CC[C@H]3[C@H](C)C(=O)O[C@@H]3[C@]12C` (some centres not stated), 3.5; for `C=C1C(=O)O[C@@H]2C[C@@H](C)C3C=CC(=O)[C@@]3(C)[C@@H](OC(=O)CN)[C@H]12` (some centres not stated), 0.85.
`CC1C(=O)O[C@@H]2[C@H]1CC[C@H](C)[C@@]1(O)CCC(=O)[C@@]21C` (some centres not stated) came in with a Cytoprotective effect in the assay with Rattus norvegicus [2] of 4.5.
As for `C=C1C(=O)O[C@@H]2[C@H]3C(C)=CC(=O)C3=C(C)CC[C@@H]12` [DEHYDROLEUCODIN], the Cytoprotective effect in the assay on Rattus norvegicus [1] came to 0.25.
Compound `C=C1C(=O)O[C@@H]2C[C@@H](C)C3CCC(C)=C3[C@@H](O)[C@H]12` (some centres not stated) [GUAIANOLIDE] registered a Cytoprotective effect with Rattus norvegicus [1] of 0.7.
`C=C1C(=O)O[C@@H]2C[C@@H](C)[C@@H]3C=CC(=O)[C@@]3(C)[C@@H](O)[C@H]12` [HELENALIN] displayed a Cytoprotective effect with Rattus norvegicus [1] of 0.33.
The same measure, in the same setting: then `C=C1C(=O)O[C@@H]2[C@H]1CC[C@H](C)[C@@]1(O)C=CC(=O)[C@@]21C` [HYMENIN], with 0.25; and `C=C1C(=O)O[C@H]2[C@H]1CCC(C)=C1C[C@H]3O[C@@]3(C)[C@@H]12` [LUDARTIN], with 0.5; and `C=C1C(=O)O[C@H]2C[C@@H](C)[C@@H]3C=CC(=O)[C@@]3(C)[C@H](O)[C@H]12` [MEXICANIN I], with 0.25.
